Measurements reported in ChEMBL document CHEMBL4138123, “Design, synthesis and biological evaluation of novel pyrazolochalcones as potential modulators of PI3K/Akt/mTOR pathway and inducers of apoptosis in breast cancer cells” (Eur J Med Chem, 2017).

Assays:
Type in all cases: functional
[1] = system: KM12; experiment: Cytotoxicity against human KM12 cells assessed as cell growth at 10 uM after 48 hrs by sulforhodamine B assay relative to control; settings: KM12, 48 h, read-out: Activity
[2] = system: K562; experiment: Cytotoxicity against human K562 cells assessed as cell growth at 10 uM after 48 hrs by sulforhodamine B assay relative to control; settings: K562, 48 h, read-out: Activity
[3] = system: HCC 2998; experiment: Cytotoxicity against human HCC2998 cells assessed as cell growth at 100 uM after 48 hrs by sulforhodamine B assay relative to control; settings: HCC 2998, 48 h, read-out: Activity
[4] = system: NCI-H23; experiment: Cytotoxicity against human NCI-H23 cells assessed as cell growth at 1 uM after 48 hrs by sulforhodamine B assay relative to control; settings: NCI-H23, 48 h, read-out: Activity
[5] = system: UACC-62; experiment: Cytotoxicity against human UACC62 cells assessed as cell growth at 0.01 uM after 48 hrs by sulforhodamine B assay relative to control; settings: UACC-62, 48 h, read-out: Activity
[6] = system: MDA-MB-468; experiment: Cytotoxicity against human MDA-MB-468 cells assessed as cell growth at 100 uM after 48 hrs by sulforhodamine B assay relative to control; settings: MDA-MB-468, 48 h, read-out: Activity
[7] = system: UO-31; experiment: Cytotoxicity against human UO31 cells assessed as cell growth at 1 uM after 48 hrs by sulforhodamine B assay relative to control; settings: UO-31, 48 h, read-out: Activity
[8] = system: SK-MEL-28; experiment: Cytotoxicity against human SK-MEL-28 cells assessed as cell growth at 1 uM after 48 hrs by sulforhodamine B assay relative to control; settings: SK-MEL-28, 48 h, read-out: Activity
[9] = system: 786-0; experiment: Cytotoxicity against human 786-0 cells assessed as cell growth at 1 uM after 48 hrs by sulforhodamine B assay relative to control; settings: 786-0, 48 h, read-out: Activity
[10] = system: PC-3; experiment: Cytotoxicity against human PC3 cells assessed as cell growth at 10 uM after 48 hrs by sulforhodamine B assay relative to control; settings: PC-3, 48 h, read-out: Activity
[11] = system: MDA-MB-468; experiment: Cytotoxicity against human MDA-MB-468 cells assessed as cell growth at 0.1 uM after 48 hrs by sulforhodamine B assay relative to control; settings: MDA-MB-468, 48 h, read-out: Activity
[12] = system: OVCAR-8; experiment: Cytotoxicity against human OVCAR8 cells assessed as cell growth at 100 uM after 48 hrs by sulforhodamine B assay relative to control; settings: OVCAR-8, 48 h, read-out: Activity
[13] = system: HT-29; experiment: Cytotoxicity against human HT-29 cells assessed as cell growth at 1 uM after 48 hrs by sulforhodamine B assay relative to control; settings: HT-29, 48 h, read-out: Activity
[14] = system: Malme-3M; experiment: Cytotoxicity against human MALME-3M cells assessed as cell growth at 1 uM after 48 hrs by sulforhodamine B assay relative to control; settings: read-out: Activity
[15] = system: MDA-MB-435; experiment: Cytotoxicity against human MDA-MB-435 cells assessed as cell growth at 10 uM after 48 hrs by sulforhodamine B assay relative to control; settings: MDA-MB-435, 48 h, read-out: Activity
[16] = system: CCRF-CEM; experiment: Cytotoxicity against human CCRF-CEM cells assessed as cell growth at 1 uM after 48 hrs by sulforhodamine B assay relative to control; settings: read-out: Activity
[17] = system: HCT-116; experiment: Cytotoxicity against human HCT116 cells assessed as cell growth at 0.01 uM after 48 hrs by sulforhodamine B assay relative to control; settings: HCT-116, 48 h, read-out: Activity
[18] = system: NCI-H522; experiment: Cytotoxicity against human NCI-H522 cells assessed as growth inhibition after 48 hrs by sulforhodamine B assay; settings: NCI-H522, 48 h
[19] = system: OVCAR-3; experiment: Cytotoxicity against human OVCAR3 cells assessed as cell growth at 10 uM after 48 hrs by sulforhodamine B assay relative to control; settings: OVCAR-3, 48 h, read-out: Activity
[20] = system: K562; experiment: Cytotoxicity against human K562 cells assessed as cell growth at 100 uM after 48 hrs by sulforhodamine B assay relative to control; settings: K562, 48 h, read-out: Activity
[21] = system: HCC 2998; experiment: Cytotoxicity against human HCC2998 cells assessed as cell growth at 0.01 uM after 48 hrs by sulforhodamine B assay relative to control; settings: HCC 2998, 48 h, read-out: Activity
[22] = system: RXF 393; experiment: Cytotoxicity against human RXF393 cells assessed as cell growth at 10 uM after 48 hrs by sulforhodamine B assay relative to control; settings: RXF 393, 48 h, read-out: Activity
[23] = system: Hs-578T; experiment: Cytotoxicity against human Hs 578T cells assessed as growth inhibition after 48 hrs by sulforhodamine B assay
[24] = system: OVCAR-8; experiment: Cytotoxicity against human OVCAR8 cells assessed as cell growth at 10 uM after 48 hrs by sulforhodamine B assay relative to control; settings: OVCAR-8, 48 h, read-out: Activity
[25] = system: PC-3; experiment: Cytotoxicity against human PC3 cells assessed as growth inhibition after 48 hrs by sulforhodamine B assay; settings: PC-3, 48 h
[26] = system: SN12C; experiment: Cytotoxicity against human SN12C cells assessed as cell growth at 0.1 uM after 48 hrs by sulforhodamine B assay relative to control; settings: read-out: Activity
[27] = system: HT-29; experiment: Cytotoxicity against human HT-29 cells assessed as cell growth at 100 uM after 48 hrs by sulforhodamine B assay relative to control; settings: HT-29, 48 h, read-out: Activity
[28] = system: UACC-62; experiment: Cytotoxicity against human UACC62 cells assessed as cell growth at 100 uM after 48 hrs by sulforhodamine B assay relative to control; settings: UACC-62, 48 h, read-out: Activity
[29] = system: SK-OV-3; experiment: Cytotoxicity against human SKOV3 cells assessed as cell growth at 0.1 uM after 48 hrs by sulforhodamine B assay relative to control; settings: SK-OV-3, 48 h, read-out: Activity
[30] = system: BT-549; experiment: Cytotoxicity against human BT549 cells assessed as cell growth at 0.01 uM after 48 hrs by sulforhodamine B assay relative to control; settings: BT-549, 48 h, read-out: Activity
[31] = system: MDA-MB-435; experiment: Cytotoxicity against human MDA-MB-435 cells assessed as cell growth at 1 uM after 48 hrs by sulforhodamine B assay relative to control; settings: MDA-MB-435, 48 h, read-out: Activity
[32] = system: Malme-3M; experiment: Cytotoxicity against human MALME-3M cells assessed as cell growth at 10 uM after 48 hrs by sulforhodamine B assay relative to control; settings: read-out: Activity
[33] = system: SF-539; experiment: Cytotoxicity against human SF539 cells assessed as cell growth at 0.1 uM after 48 hrs by sulforhodamine B assay relative to control; settings: SF-539, 48 h, read-out: Activity
[34] = system: NCI-H460; experiment: Cytotoxicity against human NCI-H460 cells assessed as cell growth at 0.1 uM after 48 hrs by sulforhodamine B assay relative to control; settings: NCI-H460, 48 h, read-out: Activity
[35] = system: SNB-19; experiment: Cytotoxicity against human SNB19 cells assessed as cell growth at 10 uM after 48 hrs by sulforhodamine B assay relative to control; settings: SNB-19, 48 h, read-out: Activity
[36] = system: NCI/ADR-RES; experiment: Cytotoxicity against human NCI/ADR-RES cells assessed as growth inhibition after 48 hrs by sulforhodamine B assay

COc1cc(-c2cc(/C=C/C(=O)c3ccc(F)c(F)c3)[nH]n2)cc(OC)c1OC
growth at 10 µM [1]: 3% | growth at 10 µM [2]: 2% | growth at 100 µM [3]: -11% | growth at 1 µM [4]: 90% | growth at 0.01 µM [5]: 97% | growth at 100 µM [6]: -26% | growth at 1 µM [7]: 84% | growth at 1 µM [8]: 98% | growth at 1 µM [9]: 93% | growth at 10 µM [10]: -23% | growth at 0.1 µM [11]: 94% | growth at 100 µM [12]: -12% | growth at 1 µM [13]: 103% | growth at 1 µM [14]: 97% | growth at 10 µM [15]: 5% | growth at 1 µM [16]: 91% | growth at 0.01 µM [17]: 101% | LC50 [18]: 65.2 µM | TGI [18]: 4.48 µM | growth at 10 µM [19]: -24% | growth at 100 µM [20]: -7% | growth at 0.01 µM [21]: 83% | growth at 10 µM [22]: -20% | LC50 [23]: > 100 µM | TGI [23]: 36.8 µM | growth at 10 µM [24]: 4% | LC50 [25]: > 100 µM | TGI [25]: 5.72 µM | growth at 0.1 µM [26]: 94% | growth at 100 µM [27]: -67% | growth at 100 µM [28]: -81% | growth at 0.1 µM [29]: 99% | growth at 0.01 µM [30]: 101% | growth at 1 µM [31]: 88% | growth at 10 µM [32]: -3% | growth at 0.1 µM [33]: 97% | growth at 0.1 µM [34]: 102% | growth at 10 µM [35]: 25% | LC50 [36]: > 100 µM | TGI [36]: 50.5 µM

COc1ccc(-c2cc(/C=C/C(=O)c3cc(OC)c(OC)c(OC)c3)[nH]n2)cc1OC
growth at 10 µM [1]: -81% | growth at 10 µM [2]: -1% | growth at 100 µM [3]: -82% | growth at 1 µM [4]: 87% | growth at 0.01 µM [5]: 96% | growth at 100 µM [6]: -58% | growth at 1 µM [7]: 67% | growth at 1 µM [8]: 89% | growth at 1 µM [9]: 81% | growth at 10 µM [10]: 1% | growth at 0.1 µM [11]: 91% | growth at 100 µM [12]: -84% | growth at 1 µM [13]: 68% | growth at 1 µM [14]: 93% | growth at 10 µM [15]: -55% | growth at 1 µM [16]: 14% | growth at 0.01 µM [17]: 100% | GI50 [18]: 1.33 µM | LC50 [18]: 5.39 µM | TGI [18]: 2.68 µM | growth at 10 µM [19]: -85% | growth at 100 µM [20]: -16% | growth at 0.01 µM [21]: 95% | growth at 10 µM [22]: -80% | GI50 [23]: 2.91 µM | LC50 [23]: > 100 µM | TGI [23]: 22.1 µM | growth at 10 µM [24]: 6% | GI50 [25]: 1.99 µM | LC50 [25]: 48.2 µM | TGI [25]: 10.3 µM | growth at 0.1 µM [26]: 99% | growth at 100 µM [27]: -66% | growth at 100 µM [28]: -80% | growth at 0.1 µM [29]: 87% | growth at 0.01 µM [30]: 96% | growth at 1 µM [31]: 85% | growth at 10 µM [32]: -25% | growth at 0.1 µM [33]: 81% | growth at 0.1 µM [34]: 100% | growth at 10 µM [35]: -29% | GI50 [36]: 2.69 µM | LC50 [36]: > 100 µM | TGI [36]: 37 µM

COc1ccc(-c2cc(/C=C/C(=O)c3ccc(OC)c(OC)c3)[nH]n2)cc1
growth at 10 µM [1]: -72% | growth at 10 µM [2]: 1% | growth at 100 µM [3]: -95% | growth at 1 µM [4]: 98% | growth at 0.01 µM [5]: 99% | growth at 100 µM [6]: -76% | growth at 1 µM [7]: 61% | growth at 1 µM [8]: 90% | growth at 1 µM [9]: 86% | growth at 10 µM [10]: -61% | growth at 0.1 µM [11]: 90% | growth at 100 µM [12]: -66% | growth at 1 µM [13]: 77% | growth at 1 µM [14]: 82% | growth at 10 µM [15]: -64% | growth at 1 µM [16]: 63% | growth at 0.01 µM [17]: 97% | GI50 [18]: 0.41 µM | LC50 [18]: 5.91 µM | TGI [18]: 1.39 µM | growth at 10 µM [19]: -95% | growth at 100 µM [20]: -26% | growth at 0.01 µM [21]: 100% | growth at 10 µM [22]: -82% | GI50 [23]: 3.38 µM | LC50 [23]: > 100 µM | TGI [23]: 29 µM | growth at 10 µM [24]: 1% | GI50 [25]: 1.45 µM | LC50 [25]: 8.3 µM | TGI [25]: 3.46 µM | growth at 0.1 µM [26]: 93% | growth at 100 µM [27]: -81% | growth at 100 µM [28]: -100% | growth at 0.1 µM [29]: 109% | growth at 0.01 µM [30]: 100% | growth at 1 µM [31]: 91% | growth at 10 µM [32]: -70% | growth at 0.1 µM [33]: 94% | growth at 0.1 µM [34]: 101% | growth at 10 µM [35]: -31% | GI50 [36]: 3.44 µM | LC50 [36]: > 100 µM | TGI [36]: 24.8 µM
